According to US20260151391A1, “TREATMENT OF MITOCHONDRIAL DISEASES WITH sGC STIMULATORS” (Tisento Therapeutics Inc., priority 2022, published 2026):

Legend:
[1] = test system: normotensive Sprague Dawley rats; assay: Blood pressure effects in normotensive rats following acute oral dose; type: in vivo, rat; settings: for Peak ΔVMAP (mm Hg): sodium salt in Milli-Q water, vehicle-adjusted MAP, 10-minute bins; for Time at Peak: time of peak ΔVMAP
Procedure: Male, normotensive Sprague Dawley rats were purchased from Charles River Laboratories. These rats have indwelling femoral artery catheters installed. Animals were harnessed to a tether system and attached to pressure transducers to monitor cardiovascular (CV) parameters, specifically mean arterial pressure (MAP) and heart rate (HR). Animals were acclimated to the system overnight and baseline CV parameters collected. The conscious, freely moving rats were then administered a single oral dose of the Compound I-14 (doses generated from the sodium salt of Compound I-14) in Milli-Q water at 1, 3, 10 and 30 mg/kg. A blood sample was collected from each animal through the catheter line at pre-dose and 2 hours post-dose for compound concentration quantification. Hemodynamic measures were recorded for ten hours post-dose. Fifty-four male rats were used for these studies and they were ordered to be received at a body weight range of 250-275 grams. They were single housed under controlled conditions of temperature (21±1° C.), relative humidity (36±1%) and placed in a 12-hr light-dark cycle (lights on at 6:00 AM and off at 6:00 PM) room at SmartLabs vivarium (21 Erie Street, Cambridge, MA) under protocol MIL-110. Animals were allowed ad libitum access to chow (LabDiet Prolab Isopro RMH 3000, St. Louis, MO) and water. Two sets of studies were carried out. For the first set of studies Compound I-14 was formulated at 0.3 and 1.0 mg/ml in Milli-Q water and frozen at −20° C. For the second set of studies, the sodium salt of Compound I-14 was weighed at Cyclerion Therapeutics and reconstituted at SmartLabs to provide 0.1, 0.3, 1.0 and 3.0 mg/ml solutions of Compound I-14 in Milli-Q water. Formulations prepared were thawed less than 4 hours before dosing and stored at room temperature or were made less than 2 hours before dosing and stored at room temperature.
Studies were conducted over 6 separate sessions. Animals were initially used within 3 days of receipt and if catheters remained patent, reused once after 6-7 days of washout. No animals were used more than twice.
This study utilized ADInstruments LabChart (v8) to collect hemodynamic data from conscious, freely moving rats tethered to a blood pressure transducer (Harvard Apparatus cat #APT300). Following an overnight acclimation to the tether and pressure transducer, animals were dosed following a 1-hr baseline recording period. Animals were administered a single oral (P.O.) dose of the sodium salt form of Compound I-14 or vehicle at a dose volume of 10 mL/kg. Data collection was continued for 10 hours post-dose.
ADInstruments LabChart (v8) was used to monitor and export hemodynamic data. Blood pressure and heart rate were continuously monitored, and data were collected at 1000 data points per second then averaged into 10-minute bins for analysis. Change from baseline MAP (ABMAP) and HR (ABHR) were calculated using the pre-dose baseline averaged over the 1-hr period prior to dosing using Microsoft Excel for Microsoft 365. This 10-minute bin dataset was used to determine peak ΔVMAP, time peak ΔVMAP, peak ΔVHR and time of peak ΔVHR. The dataset was further consolidated into 1-hr bins for the MAP and HR figures and the analysis of ΔBMAP, ΔBMAP, and ΔBHR. The definitions of these terms/abbreviations are summarized below:
Statistical analyses were performed in Graphpad Prism (v8). Significance, as compared to vehicle-treated rats, for ΔBMAP and ΔBHR data was determined by 2-way repeated measures ANOVA followed by a Dunnett's multiple comparisons test, if there was a missing data point, a mixed-effect analysis was utilized. Vehicle-adjusted MAP (ΔVMAP) was calculated by subtracting ΔBMAP of the vehicle group from the ΔBMAP of each dose group at each timepoint. Vehicle-adjusted HR (ΔVHR) was calculated in a similar manner to ΔVMAP.
Significance of AOC data were determined by one-way ANOVA followed by a Dunnett's multiple comparisons test as compared to vehicle. […]

sGC enzyme = assay: cGMP GloSensor cell-based assay, 384-well format; design: species or system human; settings: HEK293 GloSensor 40F cGMP cells, 10 μM DETA-NONOate; geometrical mean; I-20 and I-14: average of free acid and sodium salt; read-out: Glo EC50
From the text: Human embryonic kidney cells (HEK293) cells expressing GloSensor™ 40F cGMP (Part No: CS182801, Promega) were used to evaluate the activity of test compounds. The luminescent biosensors (engineered luciferase) that were incorporated into these cells detect cGMP formed by the compounds stimulating the sGC enzyme and emit luminescence.
cGMP GloSensor cells were maintained in Dulbecco's Modification of Eagle's Medium (DMEM) supplemented with fetal bovine serum (FBS, 10% final) and hygromycine (200 ug/ml). The day before assay, cells were plated in DMEM with 10% FBS in a 50 μL volume at a density of 1.5×10^4 cells/well in a poly-D-lysine coated 384-well flat white-bottom plate (Corning Cat No 35661). […] Test compounds and Diethylenetriamine NONOate (DETA-NONOate) was diluted to 3 mM (20×) in serum-free CO2 independent medium and serially diluted at 4× dilutions to create 5× dose curve from which 10 ul was added to the wells (x μM concentration for test compound solution and 10 μM concentration for DETA-NONOate solution; wherein x is one of the following final concentrations: 30 μM, 7.5 μM, 1.9 μM, 469 nM, 117 nM, 29.3 nM, 7.3 nM, 1.83 nM, 0.46 nM, 0.11 nM, 0.03 nM) For the kinetics studies, luminescense was measured right away for 0.2 sec per well with Envision (Perkin Elmer). […]
Concentration response data were analyzed using a 4-parameter fit (log (agonist) vs. response-variable slope). […]

## Cc1cc(F)c(Cc2nc(-c3ncc(F)c(O)n3)cn3ccnc23)cc1F [Compound I-14, 5-fluoro-2-(8-(2,5-difluoro-4-methylbenzyl)imidazo[1,2-a]pyrazin-6-yl)pyrimidin-4-ol]
[1]; 1 mg/kg single oral dose
  Peak ΔVMAP (mm Hg): −6.2 mm Hg
  Time at Peak: 90 min
[1]; 3 mg/kg single oral dose
  Peak ΔVMAP (mm Hg): −10.1 mm Hg
  Time at Peak: 70 min
[1]; 10 mg/kg single oral dose
  Peak ΔVMAP (mm Hg): −22.3 mm Hg
  Time at Peak: 30 min
[1]; 30 mg/kg single oral dose
  Peak ΔVMAP (mm Hg): −24.4 mm Hg
  Time at Peak: 30 min
[1]; single oral dose, main effect analysis, simple effects analysis and AOC
  no effect dose on ΔBMAP: 1 mg/kg
sGC enzyme
  EC50: ≤ 100 nM
